Results as given in PubChem BioAssay AID1199 (EPA DSSTox, 2008).
The source made the active and inactive calls.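 Rule for the calls: active = a tumour-causing dose and a tumour site recorded for mice in at least one sex group; inconclusive = only government mouse studies exist and were judged inadequate; inactive = mouse studies exist but none gave tumours.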

System: mouse carcinogenicity bioassay, TD50 from CPDB
Test: DSSTox (CPDBAS) Carcinogenic Potency Database Summary Mouse Bioassay Results
How it was run: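 Chronic long-term mouse cancer bioassays from literature and NCI/NTP, compiled per sex. TD50 is the standardized carcinogenic potency, using the most positive experiment per sex-species; target sites follow author opinion.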

[1] = TargetSites_Mouse_Female: liver
[2] = TD50_Mouse_Note: no positive results, TargetSites_Mouse_Female: no positive results
[3] = TD50_Mouse_Note: no positive results
[4] = TD50_Mouse_Note: TD50 is harmonic mean of more than one positive test, TargetSites_Mouse_Female: liver
[5] = TD50_Mouse_Note: TD50 is harmonic mean of more than one positive test, TargetSites_Mouse_Female: vascular system

SMILES: CCOc1ccc(NC(C)=O)cc1[N+](=O)[O-]
- Potency (TargetSites_Mouse_Female: no positive results): 10.1 mmol/kg/day

SMILES: CN(C)c1ccc(Cc2ccc(N(C)C)cc2)cc1
- Potency [1]: 0.814 mmol/kg/day

SMILES: Cc1cc(C)c(S(=O)(=O)O)cc1N=Nc1cc(S(=O)(=O)O)c2ccccc2c1O
- outcome (TargetSites_Mouse_BothSexes: no positive results): inactive

SMILES: c1ccccc1
- Potency (TD50_Mouse_Note: TD50 is harmonic mean of more than one positive test, greater than ten-fold variation among TD50 values for positive res, TargetSites_Mouse_Female: ear Zymbals gland, hematopoietic system, lung, mammary gland, ovary): 0.992 mmol/kg/day

SMILES: O=S(=O)(O)c1cc(S(=O)(=O)O)c2c(N=Nc3ccccc3)c(O)ccc2c1
- outcome [2]: inactive; no positive results

SMILES: CCOC(=O)CC(SP(=S)(OC)OC)C(=O)OCC (stereo unspecified)
- outcome [2]: inactive; no positive results

SMILES: FC(F)OC(F)(F)C(F)Cl (stereo unspecified)
- outcome [2]: inactive; no positive results

SMILES: Cn1cc(C(=O)O)c(=O)c2ccc(/C=C/c3ccc([N+](=O)[O-])o3)nc21
- Potency (TargetSites_Mouse_BothSexes: hematopoietic system, lung, stomach): 0.0212 mmol/kg/day

SMILES: [Se]
- outcome [3]: inactive

SMILES: O=C1c2ccccc2C(=O)N1SC(Cl)(Cl)Cl
- Potency (TD50_Mouse_Note: TD50 is harmonic mean of more than one positive test, TargetSites_Mouse_Female: small intestine): 5.23 mmol/kg/day

SMILES: O=C(O)CCl
- outcome [2]: inactive; no positive results

SMILES: CC(C)=CCC/C(C)=C/C=O
- outcome [2]: inactive; no positive results

SMILES: CCCCCCc1ccc(O)cc1O
- outcome [2]: inactive; no positive results

SMILES: O=C(O)CN(CC(=O)O)CC(=O)O
- Potency (TD50_Mouse_Note: TD50 is harmonic mean of more than one positive test, TargetSites_Mouse_Female: kidney): 13.9 mmol/kg/day
- outcome [2]: inactive; no positive results

SMILES: C[C@]12CC[C@H](OS(=O)(=O)O)CC1=CC[C@@H]1[C@@H]2CC[C@]2(C)C(=O)CC[C@@H]12
- outcome [2]: inactive; no positive results

SMILES: CN(N=O)c1ncnc2c1ncn2[C@@H]1O[C@H](CO)[C@@H](O)[C@H]1O
- Potency (TD50_Mouse_Note: TD50 is harmonic mean of more than one positive test, TargetSites_Mouse_Female: lung, mammary gland, uterus): 0.059 mmol/kg/day

SMILES: O=C(O)COc1ccc(Cl)cc1Cl
- outcome [2]: inactive; no positive results

SMILES: CN1CCCC1=O
- Potency [4]: 20.7 mmol/kg/day

SMILES: ClCC(Cl)(Cl)Cl
- Potency [4]: 1.08 mmol/kg/day

SMILES: NNC=O
- Potency (TD50_Mouse_Note: TD50 is harmonic mean of more than one positive test, harmonic mean of TD50 includes a value for upper 99% confidence li, TargetSites_Mouse_Female: lung): 0.606 mmol/kg/day

SMILES: [O-][Cl+]O
- outcome [2]: inactive; no positive results

SMILES: C=CC(OC(C)=O)c1ccc2c(c1)OCO2 (stereo unspecified)
- outcome [3]: inactive; no positive results

SMILES: c1ccc2c(c1)Nc1ccccc1S2
- outcome [2]: inactive; no positive results

SMILES: CCCCNNCCCC
- Potency (TD50_Mouse_Note: TD50 is harmonic mean of more than one positive test, TargetSites_Mouse_Female: hematopoietic system, lung): 0.213 mmol/kg/day

SMILES: CCCN(N)C=O
- Potency (TD50_Mouse_Note: TD50 is harmonic mean of more than one positive test, TargetSites_Mouse_Female: gall bladder, liver, lung): 0.061 mmol/kg/day

SMILES: CCCCCNN
- Potency (TargetSites_Mouse_Female: lung, vascular system): 0.0423 mmol/kg/day

SMILES: O=c1[nH]c(=O)n(C2CCCO2)cc1F (stereo unspecified)
- outcome [2]: inactive; no positive results

SMILES: C=CC=O
- outcome [2]: inactive; no positive results

SMILES: Oc1c(Cl)cc(Cl)cc1Sc1cc(Cl)cc(Cl)c1O
- outcome [2]: inactive; no positive results

SMILES: COc1cc(/C=N/NC(=O)c2ccncc2)ccc1O
- Potency (TargetSites_Mouse_BothSexes: liver, mammary gland): 0.101 mmol/kg/day

SMILES: Nc1ccc(/C=C/c2ccc(N)cc2S(=O)(=O)O)c(S(=O)(=O)O)c1
- outcome [2]: inactive; no positive results

SMILES: [O]=[Mo](=[O])=[O]
- Potency (TD50_Mouse_Note: TD50 is harmonic mean of more than one positive test, greater than ten-fold variation among TD50 values for positive res, TargetSites_Mouse_Female: lung): 0.0426 mmol/kg/day

SMILES: CN(N=O)C1=Nc2ccc(Cl)cc2C(c2ccccc2)=[N+]([O-])C1
- outcome [2]: inactive; no positive results

SMILES: O=[As]O
- outcome (TD50_Mouse_Note: no positive results, TargetSites_Mouse_BothSexes: no positive results): inactive

SMILES: CNC(=O)Oc1cc(C)c(N(C)C)c(C)c1
- outcome [2]: inactive; no positive results

SMILES: NN
- Potency (TD50_Mouse_Note: TD50 is harmonic mean of more than one positive test, TargetSites_Mouse_Female: lung): 0.0914 mmol/kg/day

SMILES: Nc1ccccc1
- outcome [2]: inactive; no positive results

SMILES: CC(=O)NNc1ccccc1
- Potency [5]: 0.341 mmol/kg/day

SMILES: COC(=O)C(c1ccccc1)C1CCCCN1 (stereo unspecified)
- Potency [4]: 0.371 mmol/kg/day

SMILES: O=CNc1nc(-c2ccc([N+](=O)[O-])o2)cs1
- Potency (TD50_Mouse_Note: TD50 is harmonic mean of more than one positive test, greater than ten-fold variation among TD50 values for positive res, TargetSites_Mouse_Female: hematopoietic system, lung, stomach, urinary bladder): 0.0824 mmol/kg/day

SMILES: O=S1(=O)OCCO1
- outcome [2]: inactive

SMILES: [Na+]
- outcome [2]: inactive; no positive results

SMILES: CCCCCCCCCc1ccc(OCCOCCO)cc1
- outcome [2]: inactive

SMILES: Nc1ccc(Cl)c(N)c1
- Potency [1]: 8.63 mmol/kg/day

SMILES: O=C(O)Cc1c[nH]c2ccccc12
- outcome [2]: inactive; no positive results

SMILES: Cc1ccc2c(c1[N+](=O)[O-])C(=O)c1ccccc1C2=O
- Potency [5]: 0.00584 mmol/kg/day

SMILES: O=C(NCC1CCCCN1)c1cc(OCC(F)(F)F)ccc1OCC(F)(F)F (stereo unspecified)
- outcome [2]: inactive; no positive results

SMILES: ClC(Cl)Br
- Potency [4]: 0.291 mmol/kg/day

SMILES: CC(C)(C)c1cc(O)ccc1O
- outcome [2]: inactive; no positive results

SMILES: O=c1cc(CO)occ1O
- Potency (TD50_Mouse_Note: TD50 is harmonic mean of more than one positive test, TargetSites_Mouse_Female: thyroid gland): 4.63 mmol/kg/day
